# Test results from PMC11071266, “The putative proton-coupled organic cation antiporter is involved in uptake of triptans into human brain capillary endothelial cells” (Fluids and Barriers of the CNS, 2024).
# “Also recorded” adds a separate entry of the source. Where two headings read alike, the source gives them in different places.
# Key:
# H^+/OC antiporter [1] = assay: Inhibition of [^3H]-pyrilamine uptake into hCMEC/D3 cells; assay type: cell-based, human; details: [^3H]-pyrilamine 1 µCi/mL, 48 nM, read-out: Apparent IC50 on [^3H]-pyrilamine uptake
# Method: (§1) The immortalized human cerebral microvascular endothelial cell line (hCMEC/D3) was maintained in T75-flasks coated with collagen type I from calf skin (C9791, 18.7 μg/mL) and cultured in EBM®-2 medium (Lonza, Basel, Schweiz) supplemented with 5% (v/v) fetal bovine serum (FBS, 10270, Life Technologies, CA, USA or SH3008803, ThermoFisher Scientific, MA, USA), 100 U/mL penicillin and 100 μg/ml streptomycin, 1 ng/mL human basic fibroblast growth factor (bFGF), 1.4 μM hydrocortisone, 1% (v/v) chemically defined lipid concentrate (ThermoFisher Scientific, MA, USA), 10 mM N-2-hydroxyethylpiperazine-N-2-ethane sulfonic acid (HEPES) and 5 μg/mL ascorbic acid (5% CO2, 37 °C). […] For experiments, cells were seeded into 24-well plates (6.7·10^4 cells/cm^2) and cultured for four continuous days. The cells were used for experiments between passage 3–31.
# (§2) The cells were equilibrated in hHBSS with or without inhibitor for 15 min (37 °C, 90 rpm). The compound of interest was spiked into the hHBSS followed by incubation for a designated time. The timeframe of the initial uptake rate was validated into hCMEC/D3 cells (Fig. 1 and Additional file 1). The experiment was terminated by washing three times with ice-cold HBSS supplemented with 0.0375% (v/v) sodium bicarbonate.
# The inhibitory constant at 50% inhibition (IC50) was determined by fitting the uptake flux (Jss) as function of the logarithmic inhibitor concentration to Eq. 2.2 Jss=Jmin+(Jmax-Jmin)/1+10^logIC50-InH where [I] is the inhibitor concentration, nH is the Hill coefficient.
# The hCMEC/D3 cells were used for [^3H]-pyrilamine inhibition studies between passage 3–6 (pyrilamine, oxycodone), 16–18 (almotriptan), 7–13 (eletriptan), 25–27 (frovatriptan), 3–8 (naratriptan), 16–18 (rizatriptan), 12–14 (sumatriptan), and 14–16 (zolmitriptan).
# The cells were permeabilized using 0.1% (v/v) Triton X-100 in ultrapure water (ELGA, Buckinghamshire, England) for 10 min at room temperature. Thereafter, the cells were scraped off the bottom of the wells, transferred to scintillation vials, and mixed with 2 mL of Ultima Gold 241 TM (Perkin Elmer, MA, USA). The samples were analyzed using a Tri-Carb 2910 TR Liquid Scintillation Analyzer (Perkin Elmer, MA, USA).
# [2] = pH 7.4; cited from earlier work
# P-gp [3] = target: T1, P-gp (Homo sapiens, UniProt P08183); assay: Bidirectional transport across IPEC-J2 MDR1 monolayers; details: pH 7.4
# T1 sequence (P08183 whole entry): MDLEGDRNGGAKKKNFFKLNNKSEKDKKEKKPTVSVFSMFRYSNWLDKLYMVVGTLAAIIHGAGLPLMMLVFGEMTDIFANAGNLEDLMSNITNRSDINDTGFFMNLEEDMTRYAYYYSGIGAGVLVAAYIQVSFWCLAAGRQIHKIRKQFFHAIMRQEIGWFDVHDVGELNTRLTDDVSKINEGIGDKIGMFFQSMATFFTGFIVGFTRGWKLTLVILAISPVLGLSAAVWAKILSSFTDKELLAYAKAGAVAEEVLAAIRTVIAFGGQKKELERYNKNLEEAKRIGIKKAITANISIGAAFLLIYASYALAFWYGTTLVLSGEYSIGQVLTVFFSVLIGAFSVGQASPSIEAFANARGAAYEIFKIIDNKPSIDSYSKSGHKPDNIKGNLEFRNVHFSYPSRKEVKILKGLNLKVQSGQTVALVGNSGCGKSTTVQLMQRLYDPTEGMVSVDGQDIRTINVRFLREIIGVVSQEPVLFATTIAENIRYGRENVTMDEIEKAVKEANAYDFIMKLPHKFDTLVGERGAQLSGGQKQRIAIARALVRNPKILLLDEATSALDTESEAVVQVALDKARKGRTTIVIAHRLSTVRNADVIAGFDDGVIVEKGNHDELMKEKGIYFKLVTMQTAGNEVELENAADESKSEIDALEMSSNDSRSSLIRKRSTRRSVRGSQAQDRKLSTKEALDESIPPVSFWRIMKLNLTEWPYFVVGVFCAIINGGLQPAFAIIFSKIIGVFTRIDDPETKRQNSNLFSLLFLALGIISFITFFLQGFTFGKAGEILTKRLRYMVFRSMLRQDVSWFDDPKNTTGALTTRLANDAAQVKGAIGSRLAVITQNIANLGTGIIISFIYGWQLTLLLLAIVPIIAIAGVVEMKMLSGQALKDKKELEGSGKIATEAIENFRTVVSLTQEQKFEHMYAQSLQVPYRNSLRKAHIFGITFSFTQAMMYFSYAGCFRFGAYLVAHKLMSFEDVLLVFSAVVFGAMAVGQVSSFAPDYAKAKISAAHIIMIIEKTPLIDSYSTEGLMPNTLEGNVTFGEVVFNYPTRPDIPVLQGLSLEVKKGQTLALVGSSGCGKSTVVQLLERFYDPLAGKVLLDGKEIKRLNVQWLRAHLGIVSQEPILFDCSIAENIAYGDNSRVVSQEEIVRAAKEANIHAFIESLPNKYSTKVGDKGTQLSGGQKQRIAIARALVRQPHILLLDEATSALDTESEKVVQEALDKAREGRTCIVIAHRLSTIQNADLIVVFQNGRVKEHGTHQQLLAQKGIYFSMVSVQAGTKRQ
# Method: The porcine ileum epithelial cell line IPEC-J2 transfected with human MDR1 [37] was maintained in T175-flasks and cultured in Dulbecco's Modified Eagle Medium/Nutrient Mixture F-12, supplemented with 10% (v/v) FBS (SH3008803, ThermoFisher Scientific, MA, USA), 100 U/mL penicillin and 100 μg/mL streptomycin, 2 mM L-glutamine, and 1 mM sodium pyruvate. The culture medium was supplemented with 2 µg/mL puromycin during maintenance. Culture media was changed every second or third day. Cells were passaged using trypsin–EDTA solution 10x (5–10 min, 5% CO2, 37 °C). For experiments, cells were either seeded into 24-well plates (1·10^5 cells/cm^2) and cultured for 2 days or seeded on Transwell® polyester inserts (3460, 1.12 cm^2, pore size 0.4 µm) (3.57·10^4 cells/cm^2) and cultured for 15–17 days. IPEC-J2 MDR1 cells were used for experiments between passage 2–4.
# Bidirectional transport studies were conducted using IPEC-J2 MDR1 cell monolayers cultured on semipermeable Transwell® polyester inserts (Corning Inc., NY, USA, 3460, 1.12 cm^2, pore size 0.4 µm). The cells were washed twice with 37 °C hHBSS. […]
# The accumulated amount of drug (Q) was calculated for each time-point using Eq. 3.3 Q=Vs∑n-1nCn-1+CnVt where Vs represents the sample volume, Vt the total volume of the receiver compartment, Cn is the concentration of the sample n.
# Steady state flux (Jsteady state) was calculated as the slope of the linear part of the accumulated amount (Q) in the receiver compartment as function of time from Eq. 4.4 Jss=ΔQ/Δt·A where t represents time and A is the area of the permeable support.
# The apparent permeability (Papp) was calculated from Eq. 5.5 Papp=Jss/Cdonor where Cdonor represents the initial concentration in the donor compartment.
# Efflux ratios (ER) were calculated as the ratio of the apparent permeability in the basolateral to apical direction Papp(B-A) and the permeability in the apical to basolateral direction Papp(A-B) using Eq. 6.6 ER=PappB-A/Papp(A-B)
# H^+/OC antiporter [4] = assay: Cellular uptake into hCMEC/D3 cells in absence or presence of pyrilamine or oxycodone; assay type: cell-based, human; details: triptan 50 µM, asterisks = P level; for Inhibition by oxycodone (of the compound's uptake): 500 µM oxycodone; for Inhibition by pyrilamine (of the compound's uptake): 500 µM pyrilamine
# Method: as §2
# The hCMEC/D3 cells were used for time-dependent uptake studies between passage 3–5 (pyrilamine), 7–9 (oxycodone), 6–8 (almotriptan), and 24–31 (eletriptan).
# The hCMEC/D3 cells were used for uptake studies of almotriptan, eletriptan, and sumatriptan in the presence of pyrilamine and oxycodone between passage 21–23.
# (§3) The cells were permeabilized using 50% (v/v) acetonitrile (HPLC LC–MS grade, VWR International S.A.S, Soeborg, Denmark) in ultrapure water (ELGA, Buckinghamshire, England) for 10 min at room temperature. Thereafter, the cells were scraped off the bottom of the wells and transferred to HPLC vials. Samples from bidirectional transport experiments were transferred directly into HPLC vials. All samples were stored at – 18 °C for later analysis. Calibration curves with standards in the range of 1 or 5–1000 ng/mL were dissolved in 50% (v/v) acetonitrile in ultrapure water (ELGA, Buckinghamshire, England), or in hHBSS(-) for analysis of bidirectional transport samples.
# (§4) Liquid chromatography tandem mass spectrometry (LC–MS/MS) were performed using electrospray ionization in positive mode on a micromass Quattro micro™ API tandem quadrupole mass spectrometer (Waters, MA, USA) or an Ultivo triple quadrupole mass spectrometer (Agilent Technologies, CA, USA) coupled to Agilent HPLC system 1100 Series or 1260 Series (Agilent Technologies, CA, USA California), respectively. Applied columns were an InfinityLab Poroshell 120 EC-C18 (3.0 × 50 mm; 2.7 micron, Agilent Technologies, CA, USA) or a Kinetex 2.6 μm XB-C18 (100 Å, 100 × 4.6 mm, Phenomenex Inc., CA, USA). An overview of applied HPLC and MS/MS parameters can be found in Additional file 2 and Additional file 3, respectively. The data acquisition software was MassLynx (V4.1, Waters, MA, USA).
# H^+/OC antiporter [5] = assay: Concentration-dependent cellular uptake into hCMEC/D3 cells (Michaelis-Menten kinetics); assay type: cell-based, human
# Method: as §1, §2
# To assess the concentration-dependent uptake, the uptake flux was fitted to the Michaelis–Menten equation, Eq. 1.1 Jss=Jmax[S]/Km+[S] where Jss represents flux under steady state, Jmax is the maximal flux, [S] is the substrate concentration, and Km is the Michaelis–Menten constant.
# The hCMEC/D3 cells were used for concentration-dependent uptake studies between passage 21–23 (pyrilamine), 11–13 (oxycodone), 12–14 (almotriptan), 16–18 (eletriptan), and 12–14 (sumatriptan).
# as §3, §4
# The protein content of hCMEC/D3 cells was determined for normalization purposes. Cells were washed with ice-cold phosphate buffered saline following cell lysis in cell extraction buffer (FNN0011, Thermo Fisher Scientific, MA, USA) supplemented with 1 × cOmplete™ Protease Inhibitor Cocktail (04693116001, Roche, Basel, Schweiz), 1 mM phenylmethylsulfonyl fluoride, and […] for 30 min on ice.
# H^+/OC antiporter [6] = tested on: H^+/OC antiporter; design: method as in PMID 35955563; details: trans-stimulation in hCMEC/D3 cells; cited from earlier work
# P-gp [7] = target: T1, P-gp; design: expressed in transfected cells; host or cells: IPEC-J2 (porcine ileum epithelial cell line); method as in PMID 12438524; details: MDR1-MDCKII cell line; cited from earlier work
# [8] = C57, mouse, 1 µM
# Excerpt: C57 mice were used to prepare blank plasma and brain matrices throughout all binding studies.
# [9] = design: method as in PMID 32173558; details: cited from earlier work
smiles,measurement,setting,value
CN1CCC[C@@H]1Cc1c[nH]c2ccc(CCS(=O)(=O)c3ccccc3)cc12 [Eletriptan],IC50,H^+/OC antiporter [1]; listed as eletriptan,~15 µM
same,IC50,H^+/OC antiporter [1],15 ± 4 µM
same,cLogD pH 7.4,[2],1.1
same,"Papp A→B at 120 min, 50 µM",P-gp [3],0.82 ± 0.05 ×10⁻⁶ cm/s
same,"Papp B→A at 120 min, 50 µM",P-gp [3],24 ± 2 ×10⁻⁶ cm/s
same,"efflux ratio at 120 min, 50 µM",P-gp [3],28.9 ± 1.8
same,Inhibition by oxycodone (of the compound's uptake),H^+/OC antiporter [4],yes (*)
same,Inhibition by oxycodone (of the compound's uptake),H^+/OC antiporter [4]; listed as eletriptan,inhibited the uptake of eletriptan in a statistically significant manner
same,Inhibition by pyrilamine (of the compound's uptake),H^+/OC antiporter [4],yes (****)
same,Inhibition by pyrilamine (of the compound's uptake),H^+/OC antiporter [4]; listed as eletriptan,inhibited the uptake of eletriptan in a statistically significant manner; also recorded: almost be completely inhibited
same,Concentration-dependent uptake (saturability),"H^+/OC antiporter [5]; hCMEC/D3 cells, tested concentration range",reaching saturation within a 500 µM concentration
same,Association with H^+/OC antiporter,H^+/OC antiporter [5]; summary of uptake and inhibition studies in hCMEC/D3 cells,Substrate potent inhibitor
same,Jmax,H^+/OC antiporter [5]; uptake into hCMEC/D3 cells,2.2 ± 0.7 nmol·min^−1·mg protein^−1
same,Km,"H^+/OC antiporter [5]; uptake into hCMEC/D3 cells, read-out: Apparent Km",89 ± 38 µM
same,H^+/OC antiporter substrate,H^+/OC antiporter [6],might be a substrate of the H^+/OC antiporter
same,ER,P-gp [7],44.7
same,"fu,plasma",[8],40%
same,"fu,brain",[8]; plasma,8.3%
same,Clinically relevant human peak plasma concentrations,[9],94 to 200 ng/mL
same,Clinically relevant plasma concentrations,[9]; human,246 to 523 nM
